The source of these data is patent publication US10213433B2 (AbbVie Inc., priority 2010, dated 2019).

As a reminder, the Ki is the equilibrium dissociation constant of an inhibitor or competing ligand from its target. Low values mean tighter binding, high ones weaker binding.

SMILES strings stand for the structures.

Bcl-2 protein, sequence (P10415 whole entry): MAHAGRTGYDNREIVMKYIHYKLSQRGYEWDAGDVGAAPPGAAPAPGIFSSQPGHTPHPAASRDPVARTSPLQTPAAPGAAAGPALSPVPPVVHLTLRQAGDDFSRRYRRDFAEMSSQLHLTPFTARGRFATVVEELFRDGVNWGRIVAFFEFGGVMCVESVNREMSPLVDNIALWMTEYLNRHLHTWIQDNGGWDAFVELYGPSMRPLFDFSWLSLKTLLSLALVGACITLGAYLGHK

The test concerns the target Bcl-2 protein (Homo sapiens (Human), UniProt P10415). Kind of test: Bcl-2 binding TR-FRET (Time-Resolved Fluorescence-Resonance-Energy-Transfer) assay. The following applies: inhibition constant for binding to Bcl-2 protein. The source says:
The smaller the Ki value, the greater is the binding affinity.
For orientation: TR-FRET usually uses a lanthanide donor and a delayed reading to cut background.
The molecule `CC1(C)CCC(CN2CCN(c3ccc(C(=O)NS(=O)(=O)c4ccc(N[C@@H]5CC[C@H](N6CCOCC6)C5)c([N+](=O)[O-])c4)c(Oc4cnc5[nH]ccc5c4)c3)CC2)=C(c2ccc(Cl)cc2)C1` [Compound 112, 4-(4-{[2-(4-chlorophenyl)-4,4-dimethylcyclohex-1-en-1-yl]methyl}piperazin-1-yl)-N-[(4-{[(1R,3S)-3-morpholin-4-ylcyclopentyl]amino}-3-nitrophenyl)sulfonyl]-2-(1H-pyrrolo[2,3-b]pyridin-5-yloxy)benzamide] showed a Ki of less than 10 pM.

In turn, `CC1(C)CCC(CN2CCN(c3ccc(C(=O)NS(=O)(=O)c4ccc(OCC5CCCC(=O)C5)c([N+](=O)[O-])c4)c(Oc4cnc5[nH]ccc5c4)c3)CC2)=C(c2ccc(Cl)cc2)C1` (stereo not shown) [Compound 205, 4-(4-{[2-(4-chlorophenyl)-4,4-dimethylcyclohex-1-en-1-yl]methyl}piperazin-1-yl)-N-({3-nitro-4-[(3-oxocyclohexyl)methoxy]phenyl}sulfonyl)-2-(1H-pyrrolo[2,3-b]pyridin-5-yloxy)benzamide] came in with a Ki of less than 10 pM. As to `CC1(C)CCC(CN2CCN(c3ccc(C(=O)NS(=O)(=O)c4ccc(NCC5CN(S(C)(=O)=O)CCO5)c([N+](=O)[O-])c4)c(Oc4cnc5[nH]ccc5c4)c3)CC2)=C(c2ccc(Cl)cc2)C1` (stereo not shown) [Compound 319, 4-(4-{[2-(4-chlorophenyl)-4,4-dimethylcyclohex-1-en-1-yl]methyl}piperazin-1-yl)-N-{[4-({[4-(methylsulfonyl)morpholin-2-yl]methyl}amino)-3-nitrophenyl]sulfonyl}-2-(1H-pyrrolo[2,3-b]pyridin-5-yloxy)benzamide], the Ki is less than 10 pM.

As to `CC1(C)CCC(CN2CCN(c3ccc(C(=O)NS(=O)(=O)c4ccc(OC[C@@H]5CC(F)(F)CN5C5COC5)c([N+](=O)[O-])c4)c(Oc4cnc5[nH]ccc5c4)c3)CC2)=C(c2ccc(Cl)cc2)C1` [Compound 168, 4-(4-{[2-(4-chlorophenyl)-4,4-dimethylcyclohex-1-en-1-yl]methyl}piperazin-1-yl)-N-[(4-{[(2S)-4,4-difluoro-1-oxetan-3-ylpyrrolidin-2-yl]methoxy}-3-nitrophenyl)sulfonyl]-2-(1H-pyrrolo[2,3-b]pyridin-5-yloxy)benzamide], the inhibitory constant (Ki) was less than 10 pM. As for `CC1(C)CCC(CN2CCN(c3ccc(C(=O)NS(=O)(=O)c4ccc(NC[C@H]5CC[C@@H](O)C5)c([N+](=O)[O-])c4)c(Oc4cnc5[nH]ccc5c4)c3)CC2)=C(c2ccc(Cl)cc2)C1` [Compound 158, 4-(4-{[2-(4-chlorophenyl)-4,4-dimethylcyclohex-1-en-1-yl]methyl}piperazin-1-yl)-N-{[4-({[(1S,3R)-3-hydroxycyclopentyl]methyl}amino)-3-nitrophenyl]sulfonyl}-2-(1H-pyrrolo[2,3-b]pyridin-5-yloxy)benzamide], the figure is less than 10 pM. As for `CC[C@]1(O)CC[C@H](CNc2ccc(S(=O)(=O)NC(=O)c3ccc(N4CCN(CC5=C(c6ccc(Cl)cc6)CC(C)(C)CC5)CC4)cc3Oc3cnc4[nH]ccc4c3)cc2[N+](=O)[O-])CC1` [Compound 359, 4-(4-{[2-(4-chlorophenyl)-4,4-dimethylcyclohex-1-en-1-yl]methyl}piperazin-1-yl)-N-[(4-{[(cis-4-ethyl-4-hydroxycyclohexyl)methyl]amino}-3-nitrophenyl)sulfonyl]-2-(1H-pyrrolo[2,3-b]pyridin-5-yloxy)benzamide], the figure is less than 10 pM.

Molecule `CC1(C)CCC(CN2CCN(c3ccc(C(=O)NS(=O)(=O)c4ccc(NCCCNC5CC5)c([N+](=O)[O-])c4)c(Oc4cnc5[nH]ccc5c4)c3)CC2)=C(c2ccc(Cl)cc2)C1` [Compound 291, 4-(4-{[2-(4-chlorophenyl)-4,4-dimethylcyclohex-1-en-1-yl]methyl}piperazin-1-yl)-N-[(4-{[3-(cyclopropylamino)propyl]amino}-3-nitrophenyl)sulfonyl]-2-(1H-pyrrolo[2,3-b]pyridin-5-yloxy)benzamide] registered a Ki of less than 10 pM.

With `CC1(C)CCC(CN2CCN(c3ccc(C(=O)NS(=O)(=O)c4ccc(OCC5COCCN5)c([N+](=O)[O-])c4)c(Oc4cnc5[nH]ccc5c4)c3)CC2)=C(c2ccc(Cl)cc2)C1` (stereo not shown) [Compound 78, 4-(4-{[2-(4-chlorophenyl)-4,4-dimethylcyclohex-1-en-1-yl]methyl}piperazin-1-yl)-N-{[4-(morpholin-3-ylmethoxy)-3-nitrophenyl]sulfonyl}-2-(1H-pyrrolo[2,3-b]pyridin-5-yloxy)benzamide], the inhibition constant (Ki) was less than 10 pM.

Turning to `CC1(C)CC(c2ccc(Cl)cc2)=C(CN2CCN(c3ccc(C(=O)NS(=O)(=O)c4cnc(OCC5CCOCC5)c(C#N)c4)c(Oc4cnc5[nH]ccc5c4)c3)CC2)CO1` [Compound 35, 4-(4-{[4-(4-chlorophenyl)-6,6-dimethyl-5,6-dihydro-2H-pyran-3-yl]methyl}piperazin-1-yl)-N-{[5-cyano-6-(tetrahydro-2H-pyran-4-ylmethoxy)pyridin-3-yl]sulfonyl}-2-(1H-pyrrolo[2,3-b]pyridin-5-yloxy)benzamide], the inhibitory constant (Ki) is less than 10 pM. Molecule `CC1(C)CCC(CN2CCN(c3ccc(C(=O)NS(=O)(=O)c4ccc(OCC5CCC6(CC5)COC6)c([N+](=O)[O-])c4)c(Oc4cnc5[nH]ccc5c4)c3)CC2)=C(c2ccc(Cl)cc2)C1` [Compound 351, 4-(4-{[2-(4-chlorophenyl)-4,4-dimethylcyclohex-1-en-1-yl]methyl}piperazin-1-yl)-N-{[3-nitro-4-(2-oxaspiro[3.5]non-7-ylmethoxy)phenyl]sulfonyl}-2-(1H-pyrrolo[2,3-b]pyridin-5-yloxy)benzamide] returned a Ki of less than 10 pM. In turn, `O=C(NS(=O)(=O)c1ccc(OCC2(F)CCOCC2)c(Cl)c1)c1ccc(N2CCN(CC3=C(c4ccc(Cl)cc4)CCC4(CCN(C5COC5)CC4)C3)CC2)cc1Oc1cnc2[nH]ccc2c1` [Compound 325, N-({3-chloro-4-[(4-fluorotetrahydro-2H-pyran-4-yl)methoxy]phenyl}sulfonyl)-4-(4-{[9-(4-chlorophenyl)-3-(oxetan-3-yl)-3-azaspiro[5.5]undec-8-en-8-yl]methyl}piperazin-1-yl)-2-(1H-pyrrolo[2,3-b]pyridin-5-yloxy)benzamide] registered an inhibitory constant (Ki) of less than 10 pM. To `CC1(C)CCC(CN2CCN(c3ccc(C(=O)NS(=O)(=O)c4ccc(N[C@@H]5CCN(C6CC6)C5)c([N+](=O)[O-])c4)c(Oc4cnc5[nH]ccc5c4)c3)CC2)=C(c2ccc(Cl)cc2)C1` [Compound 144, 4-(4-{[2-(4-chlorophenyl)-4,4-dimethylcyclohex-1-en-1-yl]methyl}piperazin-1-yl)-N-[(4-{[(3R)-1-cyclopropylpyrrolidin-3-yl]amino}-3-nitrophenyl)sulfonyl]-2-(1H-pyrrolo[2,3-b]pyridin-5-yloxy)benzamide] belongs less than 10 pM; to `CN(C)CCCOc1ccc(CNc2ccc(S(=O)(=O)NC(=O)c3ccc(N4CCN(CC5=C(c6ccc(Cl)cc6)CC(C)(C)CC5)CC4)cc3Oc3cnc4[nH]ccc4c3)cc2[N+](=O)[O-])cc1` [Compound 197, 4-(4-{[2-(4-chlorophenyl)-4,4-dimethylcyclohex-1-en-1-yl]methyl}piperazin-1-yl)-N-{[4-({4-[3-(dimethylamino)propoxy]benzyl}amino)-3-nitrophenyl]sulfonyl}-2-(1H-pyrrolo[2,3-b]pyridin-5-yloxy)benzamide], less than 10 pM.

As to `CC1(C)CCC(CN2CCN(c3ccc(C(=O)NS(=O)(=O)c4ccc(NCC56CC7CC(C5)C(O)C(C7)C6)c([N+](=O)[O-])c4)c(Oc4cnc5[nH]ccc5c4)c3)CC2)=C(c2ccc(Cl)cc2)C1` (stereo not shown) [Compound 200, 4-(4-{[2-(4-chlorophenyl)-4,4-dimethylcyclohex-1-en-1-yl]methyl}piperazin-1-yl)-N-{[4-({[(Z)-4-hydroxy-1-adamantyl]methyl}amino)-3-nitrophenyl]sulfonyl}-2-(1H-pyrrolo[2,3-b]pyridin-5-yloxy)benzamide], the Ki was less than 10 pM.

In turn, `CC1(C)CCC(CN2CCN(c3ccc(C(=O)NS(=O)(=O)c4ccc(NC[C@H]5CC[C@H](O)CC5)c([N+](=O)[O-])c4)c(Oc4cnc5[nH]ccc5c4)c3)CC2)=C(c2ccc(Cl)cc2)C1` [Compound 120] displayed an inhibition constant (Ki) of less than 10 pM. `CC1(C)CCC(CN2CCN(c3ccc(C(=O)NS(=O)(=O)c4ccc(NCC5CN(C(CF)CF)CCO5)c([N+](=O)[O-])c4)c(Oc4cnc5[nH]ccc5c4)c3)CC2)=C(c2ccc(Cl)cc2)C1` (stereo not shown) [Compound 252, 4-(4-{[2-(4-chlorophenyl)-4,4-dimethylcyclohex-1-en-1-yl]methyl}piperazin-1-yl)-N-{[4-({[4-(1,3-difluoropropan-2-yl)morpholin-2-yl]methyl}amino)-3-nitrophenyl]sulfonyl}-2-(1H-pyrrolo[2,3-b]pyridin-5-yloxy)benzamide]: the Ki was less than 10 pM.

With `CC1(C)CCCC(CN2CCN(c3ccc(C(=O)NS(=O)(=O)c4ccc(NCC5CCOCC5)c([N+](=O)[O-])c4)c(Oc4cnc5[nH]ccc5c4)c3)CC2)=C1c1ccc(Cl)cc1` [Compound 150, 4-(4-{[2-(4-chlorophenyl)-3,3-dimethylcyclohex-1-en-1-yl]methyl}piperazin-1-yl)-N-({3-nitro-4-[(tetrahydro-2H-pyran-4-ylmethyl)amino]phenyl}sulfonyl)-2-(1H-pyrrolo[2,3-b]pyridin-5-yloxy)benzamide], the Ki was less than 10 pM. As for `O=C(NS(=O)(=O)c1ccc(NCC2CCOCC2)c([N+](=O)[O-])c1)c1ccc(N2CCN(CC3=C(c4ccc(Cl)cc4)CCC(CF)(CF)C3)CC2)cc1Oc1cnc2[nH]ccc2c1` [Compound 353, 4-(4-{[2-(4-chlorophenyl)-5,5-bis(fluoromethyl)cyclohex-1-en-1-yl]methyl}piperazin-1-yl)-N-({3-nitro-4-[(tetrahydro-2H-pyran-4-ylmethyl)amino]phenyl}sulfonyl)-2-(1H-pyrrolo[2,3-b]pyridin-5-yloxy)benzamide], the figure is less than 10 pM; as for `CC(C)N1CCC2(CCC(c3ccc(Cl)cc3)=C(CN3CCN(c4ccc(C(=O)NS(=O)(=O)c5ccc(NCC6CCOCC6)c([N+](=O)[O-])c5)c(Oc5cnc6[nH]ccc6c5)c4)CC3)C2)CC1` [Compound 266, 4-(4-{[9-(4-chlorophenyl)-3-isopropyl-3-azaspiro[5.5]undec-8-en-8-yl]methyl}piperazin-1-yl)-N-({3-nitro-4-[(tetrahydro-2H-pyran-4-ylmethyl)amino]phenyl}sulfonyl)-2-(1H-pyrrolo[2,3-b]pyridin-5-yloxy)benzamide], less than 10 pM.
